Laboratory results: patent US8609836B2, “4-aryl-2-anilino-pyrimidines” (Janssen Pharmaceutica NV, priority 2008, dated 2013)

Columns and labels:
PLK2 (h) = PLK2 (h) (Homo sapiens, UniProt Q9NYY3); assay: PLK2 human kinase inhibition, SPA; type: biochemical; settings: read-out: PLK2 pIC50 (converted)
Summary of the method: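 33P incorporation into a biotinylated peptide (2 μM) was captured on streptavidin PVT beads and imaged on Leadseeker. Enzyme at 30 μg/ml, ATP 0.1 μM with 2 nM [γ-33P]ATP, Hepes pH 8.0 with MnCl2 and DTT. Incubation was 20 min at room temperature.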

AuroraB (h) = AuroraB (h) (Homo sapiens, UniProt Q96GD4); assay: Aurora-B human kinase inhibition, SPA; type: biochemical; settings: read-out: AuroraB pIC50 (converted)
Chain of AuroraB (h) (Q96GD4 whole entry): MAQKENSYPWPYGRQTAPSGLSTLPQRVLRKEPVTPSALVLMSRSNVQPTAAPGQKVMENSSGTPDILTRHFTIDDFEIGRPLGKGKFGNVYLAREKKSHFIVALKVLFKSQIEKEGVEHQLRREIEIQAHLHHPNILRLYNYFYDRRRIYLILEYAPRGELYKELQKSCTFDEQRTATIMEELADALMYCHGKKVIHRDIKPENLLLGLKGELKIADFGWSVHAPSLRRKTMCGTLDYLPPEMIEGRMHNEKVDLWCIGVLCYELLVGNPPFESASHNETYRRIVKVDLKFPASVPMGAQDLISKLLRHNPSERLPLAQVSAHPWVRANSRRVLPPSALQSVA
Summary of the method: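 AuroraB (0.5 μg/ml) phosphorylates 3 μM biotin-peptide using 0.5 μM ATP spiked with 33P-ATP in Hepes pH 7.5 with 3 mM MgCl2 and MnCl2, for 60 min at room temperature. EDTA stop solution carries streptavidin scintillant beads, and the captured radiolabel is imaged.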

HCT-116 = assay: Cellular proliferation assay (Alamar blue), HCT-116; type: cell-based; settings: Homo sapiens, 10% FCS, 72 hours with compound, Alamar blue 4 h
Summary of the method: (§1)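 Growth inhibition measured after 72 h incubation with compound, following 24 h pre-culture at 37° C, 5% CO2 with 10% FCS. Resazurin-based read-out at 544/590 nm after 4 h (HCT-116), 6 h (U87-MG) or 24 h (A2780, MDA-MB-231); results relative to control.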

A2780 = assay: Cellular proliferation assay (Alamar blue), A2780; type: cell-based; settings: Homo sapiens, 10% FCS, 72 hours with compound, Alamar blue 24 h, read-out: A2780 (cellular proliferation assay, Table 4) (converted)
Summary of the method: as §1

CDK1/CyclinB (h) = CDK1/CyclinB (h) (Homo sapiens, UniProt P06493); assay: CDK1/CyclinB human kinase inhibition, Invitrogen's FRET assay (Z'lyte); type: biochemical; settings: read-out: CDK1 pIC50 (converted)
Chain of CDK1/CyclinB (h) (P06493 whole entry): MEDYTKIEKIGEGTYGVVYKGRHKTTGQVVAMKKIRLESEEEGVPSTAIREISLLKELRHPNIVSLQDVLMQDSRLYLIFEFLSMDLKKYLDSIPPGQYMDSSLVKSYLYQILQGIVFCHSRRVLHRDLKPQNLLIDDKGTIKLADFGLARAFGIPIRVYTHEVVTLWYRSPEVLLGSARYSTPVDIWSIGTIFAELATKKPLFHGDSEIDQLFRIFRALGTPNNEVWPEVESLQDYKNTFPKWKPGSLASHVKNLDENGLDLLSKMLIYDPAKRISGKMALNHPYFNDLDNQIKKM
Chain of CDK1/CyclinB (h) (P14635 whole entry partner): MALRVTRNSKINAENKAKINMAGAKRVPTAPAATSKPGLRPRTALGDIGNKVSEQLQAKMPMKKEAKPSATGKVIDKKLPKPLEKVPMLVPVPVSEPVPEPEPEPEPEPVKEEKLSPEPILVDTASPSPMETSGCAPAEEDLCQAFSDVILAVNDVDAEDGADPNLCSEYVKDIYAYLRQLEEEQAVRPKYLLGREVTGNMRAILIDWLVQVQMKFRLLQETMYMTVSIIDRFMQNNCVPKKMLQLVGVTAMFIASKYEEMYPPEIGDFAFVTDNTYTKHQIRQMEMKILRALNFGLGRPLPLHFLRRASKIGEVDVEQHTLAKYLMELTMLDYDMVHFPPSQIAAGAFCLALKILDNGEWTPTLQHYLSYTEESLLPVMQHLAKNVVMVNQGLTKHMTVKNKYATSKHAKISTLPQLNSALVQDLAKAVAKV
Summary of the method: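 Read-out is the 460 nm/538 nm emission ratio (390 nm excitation) after a 60 min protease development step. Before that, 10 μM ATP and 2 μM Z'lyte Ser/Thr peptide 12 react 60 min at room temperature with 0.2 μg/ml human CDK1/CyclinB in Hepes pH 7.5 containing MgCl2, EGTA and Brij-35.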

H1299 = assay: Cellular proliferation assay (Alamar blue), H1299; type: cell-based; settings: Homo sapiens, NCI-H1299; 10% FCS; 72 hours with compound; Alamar blue 4 h
Summary of the method: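 This proliferation assay on NCI-H1299 cells used an initial 24-hour compound-free incubation after seeding, followed by 72 hours of compound treatment with 10% FCS serum at 37° C. and 5% (v/v) CO2. Viable cells were quantified by a 4 h Alamar blue incubation and fluorescent plate reading at 544 nm/590 nm, and effects were expressed relative to control cells.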

CDK4/CyclinD1 (h) = CDK4/CyclinD1 (h) (Homo sapiens, UniProt P11802); assay: CDK4/CyclinD1 human kinase inhibition, SPA with GST-pRb substrate; type: biochemical; settings: read-out: CDK4 pIC50 (converted)
Chain of CDK4/CyclinD1 (h) (P11802 whole entry): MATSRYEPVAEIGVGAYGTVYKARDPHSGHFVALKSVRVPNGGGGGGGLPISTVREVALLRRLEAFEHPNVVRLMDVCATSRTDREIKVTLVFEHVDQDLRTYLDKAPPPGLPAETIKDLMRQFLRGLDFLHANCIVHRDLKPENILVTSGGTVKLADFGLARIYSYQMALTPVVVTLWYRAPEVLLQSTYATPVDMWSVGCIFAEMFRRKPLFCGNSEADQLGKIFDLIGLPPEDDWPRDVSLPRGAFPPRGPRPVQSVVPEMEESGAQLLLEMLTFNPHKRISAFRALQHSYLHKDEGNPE
Chain of CDK4/CyclinD1 (h) (P24385 whole entry partner): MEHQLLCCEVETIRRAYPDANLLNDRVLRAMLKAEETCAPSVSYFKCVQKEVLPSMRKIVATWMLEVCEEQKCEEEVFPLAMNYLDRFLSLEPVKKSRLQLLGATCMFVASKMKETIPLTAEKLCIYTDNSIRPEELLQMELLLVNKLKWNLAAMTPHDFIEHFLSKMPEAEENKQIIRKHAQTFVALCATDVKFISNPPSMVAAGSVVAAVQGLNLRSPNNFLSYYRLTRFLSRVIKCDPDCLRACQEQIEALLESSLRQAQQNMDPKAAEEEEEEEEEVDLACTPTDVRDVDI
Summary of the method: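 Scintillation proximity format: after EDTA/Triton stop containing glutathione SPA beads, 33P incorporation was counted. The reaction ran 60 min at room temperature in Hepes pH 7.5 with NaF, MgCl2, DTT, using 2.5 μg/ml human CDK4/CyclinD1, 40 μg/ml GST-pRb substrate and 2 nM [γ-33P]ATP.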

PLK3 (h) = PLK3 (h) (Homo sapiens, UniProt Q9H4B4); assay: PLK3 human kinase inhibition, SPA; type: biochemical; settings: read-out: PLK3 pIC50 (converted)
Chain of PLK3 (h) (Q9H4B4 whole entry): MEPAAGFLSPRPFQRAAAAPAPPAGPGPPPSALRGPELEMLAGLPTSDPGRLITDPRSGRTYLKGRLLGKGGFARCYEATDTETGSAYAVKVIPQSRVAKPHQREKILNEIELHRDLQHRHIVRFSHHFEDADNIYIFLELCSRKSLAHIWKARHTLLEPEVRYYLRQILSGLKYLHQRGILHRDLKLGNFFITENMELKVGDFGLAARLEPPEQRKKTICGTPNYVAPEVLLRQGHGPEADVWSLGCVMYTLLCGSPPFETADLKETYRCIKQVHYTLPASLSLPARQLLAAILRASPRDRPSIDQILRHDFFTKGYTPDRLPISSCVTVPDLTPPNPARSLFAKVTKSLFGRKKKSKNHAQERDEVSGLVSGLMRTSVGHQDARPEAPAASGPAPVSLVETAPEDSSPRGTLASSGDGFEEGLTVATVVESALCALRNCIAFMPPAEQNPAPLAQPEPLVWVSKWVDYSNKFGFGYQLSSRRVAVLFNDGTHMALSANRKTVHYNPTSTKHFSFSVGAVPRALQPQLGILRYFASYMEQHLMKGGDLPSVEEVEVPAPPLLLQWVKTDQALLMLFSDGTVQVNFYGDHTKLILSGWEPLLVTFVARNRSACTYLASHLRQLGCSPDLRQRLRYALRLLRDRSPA
Summary of the method: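 Radiometric scintillation proximity format at pH 8.0 (Hepes, MnCl2, DTT). The 2 μM biotin-peptide substrate is phosphorylated by PLK3 (h) (30 μg/ml) using 0.1 μM ATP traced with 33P, for 20 min at room temperature. EDTA stop; phosphopeptide captured on streptavidin beads and imaged.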

MDA-MB-231 = assay: Cellular proliferation assay (Alamar blue), MDA-MB-231; type: cell-based; settings: Homo sapiens, 10% FCS, 72 hours with compound, Alamar blue 24 h, read-out: MDA/MB231 (cellular proliferation assay, Table 4) (converted)
Summary of the method: as §1

U87-MG = assay: Cellular proliferation assay (Alamar blue), U87-MG; type: cell-based; settings: Homo sapiens, U-87 MG; 10% FCS; 72 hours with compound; Alamar blue 6 h; read-out: U87-MG (cellular proliferation assay, Table 4) (converted)
Summary of the method: as §1

Chain of PLK2 (h) (Q9NYY3 whole entry): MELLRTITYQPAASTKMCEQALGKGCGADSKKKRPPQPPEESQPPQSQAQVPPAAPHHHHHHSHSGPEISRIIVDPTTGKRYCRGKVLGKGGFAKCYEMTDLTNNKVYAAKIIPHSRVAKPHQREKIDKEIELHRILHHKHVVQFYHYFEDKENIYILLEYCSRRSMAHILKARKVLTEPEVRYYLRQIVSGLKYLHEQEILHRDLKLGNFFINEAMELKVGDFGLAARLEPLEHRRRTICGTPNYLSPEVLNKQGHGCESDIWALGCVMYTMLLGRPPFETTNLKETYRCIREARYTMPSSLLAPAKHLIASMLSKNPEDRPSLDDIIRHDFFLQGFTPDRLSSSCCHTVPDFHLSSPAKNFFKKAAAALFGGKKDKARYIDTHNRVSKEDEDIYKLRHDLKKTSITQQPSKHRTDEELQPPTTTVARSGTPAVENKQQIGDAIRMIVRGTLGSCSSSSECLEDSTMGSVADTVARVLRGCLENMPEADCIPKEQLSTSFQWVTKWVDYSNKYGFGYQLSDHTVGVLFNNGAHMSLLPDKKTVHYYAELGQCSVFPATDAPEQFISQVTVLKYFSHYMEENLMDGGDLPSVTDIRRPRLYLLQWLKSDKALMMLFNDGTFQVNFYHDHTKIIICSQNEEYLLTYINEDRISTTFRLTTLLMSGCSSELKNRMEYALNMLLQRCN

Row | SMILES | IC50 (PLK2 (h)) [µM] | IC50 (AuroraB (h)) [µM] | IC50 (HCT-116) [µM] | IC50 (A2780) [µM] | IC50 (CDK1/CyclinB (h)) [µM] | IC50 (H1299) [µM] | IC50 (CDK4/CyclinD1 (h)) [µM] | IC50 (PLK3 (h)) [µM] | IC50 (MDA-MB-231) [µM] | IC50 (U87-MG) [µM]
1 | COc1cc2cc(c1)Nc1nccc(n1)-c1ccc(cc1)CN(C)CCNC(=O)[C@@H]1CCCN1C2 [Compound 158] | > 3.02 | > 10 | > 10 | > 10 | 8.71 | > 10 | > 10 | 7.08 | > 10 | > 10
2 | CN1CCNC(=O)[C@@H]2CCCN2Cc2cccc(c2)Nc2nccc(n2)-c2ccc(cc2)C1 [Compound 160] | > 3.02 | > 10 | > 10 | > 10 | > 10 | > 10 | > 10 | 9.33 | > 10 | > 10
3 | COc1cc2cc(c1)Nc1nccc(n1)-c1ccc(OC)c(c1)CN(C)CCNC(=O)[C@@H]1CCCN1C2 [Compound 162] | > 3.02 | 6.61 | > 10 | > 10 | > 10 | > 10 | > 10 | > 10 | > 10 | > 10
4 | COc1ccc2cc1CN(C)CCNC(=O)[C@@H]1CCCN1Cc1cc(NCCc3ccccc3)cc(c1)Nc1nccc-2n1 [Compound 163] | > 10 | > 10 | 4.17 | 6.61 | > 10 | > 10 | > 10 | > 10 | > 10 | 6.92
5 | COc1ccc2cc1CN(C)CCNC(=O)[C@@H]1CCCN1Cc1cc(cc(NC(C)C)c1)Nc1nccc-2n1 [Compound 165] | > 10 | > 10 | 5.62 | > 10 | > 10 | > 10 | > 10 | > 10 | > 10 | 6.17
6 | COc1ccc2cc1CN(C)CCCNC(=O)[C@@H]1CCCN1Cc1cc(NCCc3ccccc3)cc(c1)Nc1nccc-2n1 [Compound 167] | > 10 | > 10 | 2.24 | 2.75 | > 10 | > 10 | > 10 | > 10 | 6.46 | 3.72
7 | CN1CCN(C)c2ccc(cn2)-c2ccnc(n2)Nc2cc(c3c(c2)OCO3)CN2CCC[C@H]2C1=O [Compound 168] | > 10 | 2.57 | > 10 | > 10 | 8.13 | > 10 | 2.14 | > 10 | > 10 | 6.76
8 | COc1cc2cc(c1)Nc1nccc(n1)-c1ccc(OC)c(c1)CN(C)CCCNC(=O)[C@@H]1CCCN1C2 [Compound 171] | > 10 | > 10 | 6.61 | > 10 | > 10 | > 10 | > 10 | > 10 | > 10 | 6.17
9 | COc1ccc2cc1CN(C)CCNC(=O)[C@@H]1CCCN1Cc1cc(C#N)cc(c1)Nc1nccc-2n1 [Compound 181] | > 10 | > 10 | 4.9 | > 10 | > 10 | > 10 | > 10 | > 10 | > 10 | 9.12
10 | C[C@@H]1NCc2cc(ccc2N2CCOCC2)Nc2nccc(n2)-c2cccc(c2)CNC1=O [Compound 182] | > 10 | > 10 | > 10 | > 10 | 7.59 | > 10 | 6.03 | > 10 | > 10 | > 10
11 | C[C@@H]1NCc2cccc(c2)Nc2nccc(n2)-c2cccc(c2)CNC1=O [Compound 184] | > 10 | > 10 | 5.37 | 5.01 | 0.398 | 9.77 | 1.17 | > 10 | > 10 | > 10
